Series [1] relates to P. falciparum 3D7. Description: 3H-hypoxanthine uptake in P. falciparum-infected erythrocytes. In kind it is cell-based, Plasmodium falciparum. The following applies: read-out: EC50 P. falciparum 3D7.
The target in series [2] is pfDHOD (Plasmodium falciparum (isolate 3D7), UniProt Q08210). Description: DHOD enzyme inhibition, colorimetric DCIP reduction or direct orotic acid assay. The class given is biochemical. As to the method:
Reactions are initiated by addition of enzyme to a final concentration in the range of about 5 nM to about 50 nM while maintaining the temperature of a circulating water bath at 25° C.
Assay solutions were prepared as discussed above, except that DCIP is not present and the solution is depleted of oxygen by the inclusion of an oxidase/reductase system, such as, 0.1 mg/ml of glucose oxidase, 0.02 mg/ml catalase and 50 mM glucose. The data obtained was fitted to equation 1, to determine the IC50 values of the representative compounds.

[3] abbreviates: Plasmodium falciparum, 3D7, Erythrocyte.
The mark [4] stands for this setting: Plasmodium falciparum, 3D7, Erythrocyte, 3D7 strain.

The record followed here is patent publication US9238653B2, “Antimalarial agents that are inhibitors of dihydroorotate dehydrogenase” (BOARD OF REGENTS, THE UNIVERSITY OF TEXAS SYSTEM, priority 2009, dated 2016).

Read-outs that look alike come from different tables or passages of the source.

pfDHOD, sequence (Q08210 24-569 limits assumed): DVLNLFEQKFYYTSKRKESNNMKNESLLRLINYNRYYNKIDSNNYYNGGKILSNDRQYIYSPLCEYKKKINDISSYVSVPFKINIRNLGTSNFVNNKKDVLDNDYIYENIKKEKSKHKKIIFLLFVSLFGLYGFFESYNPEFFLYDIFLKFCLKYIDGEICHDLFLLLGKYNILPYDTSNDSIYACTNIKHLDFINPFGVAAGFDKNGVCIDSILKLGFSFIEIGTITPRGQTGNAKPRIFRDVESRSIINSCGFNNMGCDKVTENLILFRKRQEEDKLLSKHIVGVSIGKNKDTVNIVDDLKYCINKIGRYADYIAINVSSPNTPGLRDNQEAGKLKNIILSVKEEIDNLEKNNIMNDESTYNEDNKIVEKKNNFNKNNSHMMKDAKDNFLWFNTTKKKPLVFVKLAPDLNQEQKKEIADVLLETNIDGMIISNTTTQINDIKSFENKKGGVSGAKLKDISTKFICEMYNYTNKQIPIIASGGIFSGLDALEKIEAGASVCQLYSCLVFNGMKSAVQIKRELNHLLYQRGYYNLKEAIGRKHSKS

In the case of `Cc1cc(Nc2ccc(S(F)(F)(F)(F)F)cc2)n2nc(C(C)C)nc2n1`, the EC50 in series [1] (setting [3]) is 420 nM. Take `Cc1cc(NC2CCc3ccccc3C2)n2nc(C(F)(F)F)nc2n1` (centres unmarked): the IC50 in series [2] is 1200 nM. In other words, the single-digit micromolar range.

Regarding `COc1nc2nc(C)cc(Nc3ccc(S(F)(F)(F)(F)F)cc3)n2n1`, the EC50 in series [1] (setting [4]) was 64 nM. The same molecule gave an IC50 in series [2] of 42 nM. The corresponding values for `Cc1cc(Nc2ccc(S(F)(F)(F)(F)F)cc2)n2nc(C)nc2n1` are 420 nM and 510 nM. In the case of `Cc1cc(Nc2ccc(C(F)(F)F)c(C(F)(F)F)c2)n2ncnc2n1`, in series [1] (setting [3]), the EC50 worked out at 2300 nM. The IC50 in series [2] came to 540 nM. `Cc1cc(Nc2ccc3sccc3c2)n2ncnc2n1`: in series [1] (setting [4]), the EC50 is 70 nM. For the same molecule, the IC50 in series [2] is 90 nM.

As for `COc1nc2nc(C)cc(Nc3cccc(Cl)c3)n2n1`, the EC50 in series [1] (setting [4]) is 1000 nM.

Consider `Cc1ccc(Nc2c3c(nc4ncnn24)CCC3)cc1F`, for which the EC50 in series [1] (setting [3]) is 8300 nM. Regarding `Cc1cc(NC2Cc3cc(Cl)c(Cl)cc3C2)n2ncnc2n1`, the EC50 in series [1] (setting [4]) is over 5000 nM. The same molecule displayed a concentration for half-maximal inhibition (IC50) in series [2] of 1200 nM. For `Cc1cc(Nc2ccc(C(F)(F)F)cc2)n2nc(C(C)C)nc2n1`, the EC50 in series [1] (setting [3]) is 98 nM. Besides, the IC50 in series [2] came to 110 nM. Consider `Cc1cc(Nc2ccc(C(F)(F)F)c(F)c2)n2ccnc2n1` [Example 51, N-(3-fluoro-4-(trifluoromethyl)phenyl)-7-methylimidazo[1,2-a]pyrimidin-5-amine], for which the melting point was 302 to 304 °C. `Cc1cc(Nc2ccc(S(F)(F)(F)(F)F)cc2)n2ncnc2n1`: the EC50 in series [1] (setting [4]) turned out to be 18000 nM. Moreover, in series [2], the IC50 is 160 nM.

As to `Cc1cc(Nc2ccc(Cl)c(F)c2)n2ncnc2n1` [drawing 338], in series [1] (setting [3]), the EC50 turned out to be 3500 nM. The same molecule yielded an IC50 in series [2] of 510 nM. In the case of `Cc1cc(Nc2ccc3c(c2)CCCC3)n2ccnc2n1` [Example 53, 7-Methyl-N-(5,6,7,8-tetrahydronaphthalen-2-yl)imidazo[1,2-a]pyrimidin-5-amine], the melting point lay within 264 to 266 °C.

In the case of `FC(F)(F)c1ccc(Nc2cc(C(F)(F)F)nc3ncnn23)cc1`, the EC50 in series [1] (setting [4]) is over 10000 nM. The molecule also gave an IC50 in series [2] of 1700 nM. With `Cc1cc(Nc2ccc(Cl)cc2)n2nc(C(C)(F)F)nc2n1`, the EC50 in series [1] (setting [4]) is 33 nM. Besides, inhibition in series [2] was half-maximal at 28 nM (IC50). For `Cc1cc(Nc2ccc(S(F)(F)(F)(F)F)cc2)n2nc(C(F)(F)F)nc2n1` [drawing 344], in series [1] (setting [3]), the EC50 was 140 nM. In series [2], this molecule gave an IC50 of 130 nM. `Cc1cc(NC2Cc3ccc(Br)cc3C2)n2ncnc2n1` (centres unmarked) showed a melting point of 164 °C. As for `Cc1cc(Nc2ccc3c(c2)CCC3)n2ccnc2n1` [drawing 336], in series [1] (setting [4]), the EC50 was found to be 600 nM. Besides, the IC50 in series [2] worked out at 130 nM. For `Cc1cc(Nc2ccc(Cl)cc2)n2nc(C(F)(F)F)nc2n1`, in that order: 260 nM and 90 nM. For the molecule `Cc1cc(NC2CCc3ccccc3C2)n2ncnc2n1` (centres unmarked), the EC50 in series [1] (setting [3]) was determined as 1800 nM. The molecule further yielded an IC50 in series [2] of 500 nM. For the molecule `Cc1cc(Nc2ccc(C(C)(C)C)c(F)c2)n2ncnc2n1`, in series [1] (setting [4]), the EC50 worked out at 100 nM. In series [2], this molecule displayed an IC50 of 60 nM. As to `Cc1cc(Nc2cc(F)c(C(F)(F)F)c(F)c2)n2nc(C(F)(F)F)nc2n1`, the EC50 in series [1] (setting [4]) came out at 4.8 nM. The same molecule registered an IC50 in series [2] of 22 nM. The corresponding values for `Cc1cc(NC2Cc3cc(F)c(F)cc3C2)n2ncnc2n1` are 1500 nM and 1000 nM.

In the case of `Cc1cc(C)cc(Nc2cc(C)nc3nc(C(F)(F)F)nn23)c1`, the EC50 in series [1] (setting [4]) turned out to be 700 nM. The same molecule displayed an IC50 in series [2] of 220 nM. For `Cc1cc(Nc2ccc(S(F)(F)(F)(F)F)cc2)n2nc(C3CC3)nc2n1`, in series [1] (setting [4]), the EC50 amounted to 500 nM. As to `CC(C)c1ccc(Nc2c3c(nc4ncnn24)CCC3)cc1`, in series [1] (setting [4]), the EC50 stood at 1800 nM. In addition, the IC50 in series [2] was determined as 250 nM. The corresponding values for `Cc1cc(Nc2cc(F)c(C(F)(F)F)c(F)c2)n2ncnc2n1` are 240 nM and 190 nM. The corresponding values for `Cc1cc(Nc2cc(F)c(C(F)(F)F)c(F)c2)n2nc(C(C)(F)F)nc2n1` are 30 nM and 20 nM. For `Cc1cc(NC2Cc3ccc(Br)cc3C2)n2ncnc2n1` (centres unmarked) [drawing 343], in series [1] (setting [3]), the EC50 amounted to 6600 nM. The molecule also showed an IC50 in series [2] of 990 nM. For `Cc1cc(NC2Cc3ccc(F)cc3C2)n2ncnc2n1` (centres unmarked), in that order: 1300 nM and 610 nM. Consider `CCC(F)(F)c1nc2nc(C)cc(Nc3ccc(C(F)(F)F)cc3)n2n1`, for which the EC50 in series [1] (setting [3]) stood at 45 nM. Moreover, in series [2], inhibition was half-maximal at 190 nM (IC50).

In the case of `Cc1cc(Nc2ccc(C(F)(F)F)cc2)n2ccnc2n1`, in series [1] (setting [4]), the half-maximal effective concentration (EC50) amounted to 330 nM. The molecule further returned an IC50 in series [2] of 77 nM. Regarding `CCc1c(C)nc2ncnn2c1Nc1ccc(OC(F)(F)F)cc1`, the EC50 in series [1] (setting [4]) was over 10000 nM. Regarding `Cc1cc(Nc2ccc3c(c2)CCCC3)n2ncnc2n1` [drawing 335], in series [1] (setting [4]), the EC50 amounted to 300 nM. The molecule further yielded an IC50 in series [2] of 100 nM.

For `Cc1cc(NC2CCc3cc(Cl)ccc3C2)n2ncnc2n1` (centres unmarked), the EC50 in series [1] (setting [4]) was 10000 nM. The same molecule returned an IC50 in series [2] of 670 nM. Turning to `Cc1cc(Nc2ccc(S(F)(F)(F)(F)F)cc2)n2ccnc2n1`, the concentration giving a half-maximal response (EC50) in series [1] (setting [4]) was 600 nM.

`Cc1cc(Nc2ccc(CC(F)(F)F)cc2)n2ncnc2n1` [drawing 337] returned an IC50 in series [2] of 2470 nM. As for `Cc1cc(Nc2ccc(C(F)(F)F)cc2)n2nc(C(F)(F)F)nc2n1` [drawing 329], the EC50 in series [1] (setting [3]) is 73 nM. Moreover, in series [2], the concentration for half-maximal inhibition (IC50) is 35 nM. With `Cc1cc(Nc2ccc(C(F)(F)F)c(F)c2)n2ccnc2n1` [drawing 333], in series [1] (setting [4]), the EC50 came out at 600 nM. For the same molecule, the IC50 in series [2] came to 140 nM. Consider `Cc1cc(Nc2ccc3c(c2)CCCC3)n2ncnc2n1` [drawing 353], for which the concentration giving a half-maximal response (EC50) in series [1] (3D7 strain) was found to be 200 nM. Also, half-maximal inhibition in series [2] (IC50) was put at 32 nM.

On to `Cc1cc(Nc2ccc(C)c(Cl)c2)n2nc(C(F)(F)F)nc2n1`, for which, in series [1] (setting [4]), the EC50 was determined as 800 nM. Half-maximal inhibition in series [2] (IC50) was put at 130 nM. Take `Cc1cc(Nc2ccc(C(F)(F)F)cc2)n2nc(C(F)(F)F)nc2n1`: the melting point is 124 to 126 °C. The same measure, in the same setting: in the case of `Cc1cc(Nc2ccc(Cl)c(F)c2)n2ncnc2n1` it was 285 °C. Same read-out and setting: then `Cc1cc(Nc2ccc3c(c2)CCC3)n2ccnc2n1` [Example 54, N-(2,3-dihydro-1H-inden-5-yl)-7-methylimidazo[1,2-a]pyrimidin-5-amine], with 255 to 257 °C. As for `CCc1nc2nc(C)cc(Nc3ccc(S(F)(F)(F)(F)F)cc3)n2n1`, the EC50 in series [1] (setting [4]) turned out to be 100 nM.

For the molecule `Cc1cc(Nc2ccc(C(F)(F)F)cc2)n2nc(C3CC3)nc2n1`, in series [1] (setting [3]), the EC50 came out at 150 nM. Also, in series [2], the IC50 is 140 nM. In the case of `Cc1cc(Nc2ccc(CC(F)(F)F)cc2)n2ncnc2n1` [Example 25, 5-Methyl-N-(4-(2,2,2-trifluoroethyl)phenyl)-[1,2,4]triazolo[1,5-a]pyrimidin-7-amine], the melting point stood at 204 °C.

On to `Cc1cc(Nc2ccc(C(F)(F)F)cc2)n2nc(C(C)(F)F)nc2n1`, for which the concentration for a half-maximal effect (EC50) in series [1] (setting [4]) amounted to 7 nM. This molecule returned a half-inhibitory concentration (IC50) in series [2] of 38 nM. For `Cc1cc(Nc2ccc(S(F)(F)(F)(F)F)cc2)n2nc(C(F)(F)F)nc2n1`, the melting point is 178 to 180 °C. In the case of `Cc1cc(NC2CCc3cc(F)ccc3C2)n2ncnc2n1` (centres unmarked), the EC50 in series [1] (setting [3]) was 2500 nM. Further, in series [2], it took 630 nM to reach half-maximal inhibition (IC50). Turning to `Cc1cc(Nc2ccc(F)cc2)n2nc(C(F)(F)F)nc2n1`, in series [1] (setting [4]), the EC50 worked out at 8500 nM. Besides, in series [2], the IC50 turned out to be 740 nM. In turn, `Cc1cc(Nc2ccc3c(c2)CCCC3)n2nc(C(F)(F)F)nc2n1` gave an IC50 in series [2] of 43 nM.

With `COc1cc2c(cc1OC)CC(Nc1cc(C)nc3ncnn13)C2`, in series [1] (setting [3]), the EC50 is 7700 nM. Further, in series [2], the IC50 is 4620 nM. As to `Brc1ccc(Nc2c3c(nc4ncnn24)CCCC3)cc1`, the EC50 in series [1] (setting [4]) is 9900 nM. In series [2], this molecule returned an IC50 of 2120 nM.

As for `CCC(F)(F)c1nc2nc(C)cc(Nc3ccc(S(F)(F)(F)(F)F)cc3)n2n1`, the EC50 in series [1] (setting [3]) came out at 550 nM. In the case of `Cc1cc(Nc2ccc(SC(F)(F)F)cc2)n2ncnc2n1`, in series [1] (setting [4]), the EC50 was over 4000 nM. In series [2], this molecule showed an IC50 of 610 nM.

`Cc1cc(Nc2ccc(Cl)c(F)c2)n2nc(C(F)(F)F)nc2n1`: the EC50 in series [1] (setting [4]) amounted to 250 nM. This molecule also had an IC50 in series [2] of 520 nM.

With `Cc1cc(NC2Cc3ccccc3C2)n2ncnc2n1`, the EC50 in series [1] (setting [4]) turned out to be 2400 nM. Further, in series [2], the IC50 turned out to be 500 nM. For `Cc1cc(Nc2ccc(S(F)(F)(F)(F)F)cc2)n2nc(C(C)(F)F)nc2n1`, the EC50 in series [1] (setting [3]) is 19 nM. `CCc1c(C)nc2ncnn2c1Nc1ccc(C(C)C)cc1`: the EC50 in series [1] (setting [4]) is over 10000 nM. The molecule also registered an IC50 in series [2] of 1660 nM. The corresponding values for `Cc1cc(Nc2ccc(C(F)(F)F)c(F)c2)n2nc(C(C)(F)F)nc2n1` are 9.3 nM and 35 nM.

A word on the EC50: it is the midpoint of the concentration-response curve. The term IC50 denotes the concentration at which inhibition is half-maximal. The low end stands for higher potency, the high end for lower potency. Usually melting point stands for the temperature, or range, at which the solid turns liquid.
